According to ChEMBL document CHEMBL1146405, “Dioncophylline A as a growth-retarding agent against the herbivorous insect Spodoptera littoralis: structure-activity relationships” (J Nat Prod, 1997):

test system: Spodoptera littoralis; assay: Insecticidal activity against Spodoptera littoralis larvae assessed per gram of fresh weight of diet administered through artificial diet measured after 6 days; type: functional, organism-based

Structure (SMILES)	EC50 [µg/g]
CCCCCCCCCCCC(=O)Oc1c(-c2c(C)cc(OC)c3c(OC)cccc23)ccc2c1[C@@H](C)N(C=O)[C@H](C)C2	> 750
COc1cccc2c(-c3ccc4c(c3OCc3ccc([N+](=O)[O-])cc3)[C@@H](C)N[C@H](C)C4)c(C)cc(OC)c12	25.6
COc1cccc2c(-c3ccc4c(c3OCc3ccc(Cl)cc3)[C@@H](C)N[C@H](C)C4)c(C)cc(OC)c12	16.4
COc1cccc2c(-c3ccc4c(c3OCc3ccc(C(F)(F)F)cc3)[C@@H](C)N[C@H](C)C4)c(C)cc(OC)c12	35.1
COc1c(-c2c(C)cc(OC)c3c(OC)cccc23)ccc2c1[C@@H](C)N(C=O)[C@H](C)C2	171
COc1cccc2c(-c3ccc4c(c3OCc3ccc(Br)cc3)[C@@H](C)N[C@H](C)C4)c(C)cc(OC)c12	15.6
COc1cccc2c(-c3ccc4c(c3O)[C@@H](C)N(C)[C@H](C)C4)c(C)cc(OC)c12	377
COc1cccc2c(-c3cc(Br)c4c(c3O)[C@@H](C)N[C@H](C)C4)c(C)cc(OC)c12 [5-BROMODIONCOPHYLLINE A]	193
COc1cccc2c(-c3ccc4c(c3OC(C)=O)[C@@H](C)N(C=O)[C@H](C)C4)c(C)cc(OC)c12 [8-O-ACETYL-N-FORMYLDIONCOPHYLLINE A]	361
COc1cccc2c(-c3ccc4c(c3OC(=O)c3ccccc3)[C@@H](C)N(C=O)[C@H](C)C4)c(C)cc(OC)c12 [8-O-BENZOYL-N-FORMYLDIONCOPHYLLINE A]	132
COc1cccc2c(-c3ccc4c(c3OCc3ccccc3)[C@@H](C)N(C=O)[C@H](C)C4)c(C)cc(OC)c12 [8-O-BENZYL-N-FORMYLDIONCOPHYLLINE A]	67.1
COc1cccc2c(-c3ccc4c(c3OCc3ccccc3)[C@@H](C)N[C@H](C)C4)c(C)cc(OC)c12 [8-O-BENZYLDIONCOPHYLLINE A]	27.1
COc1cccc2c(-c3ccc4c(c3OC(C)C)[C@@H](C)N[C@H](C)C4)c(C)cc(OC)c12 [8-O-ISOPROPYLDIONCOPHYLLINE A]	94.1
CCCCOc1c(-c2c(C)cc(OC)c3c(OC)cccc23)ccc2c1[C@@H](C)N(C=O)[C@H](C)C2 [8-O-N-BUTYL-N-FORMYLDIONCOPHYLLINE A]	182
COc1cccc2c(-c3ccc4c(c3O)[C@@H](C)N[C@H](C)C4)c(C)cc(OC)c12 [DIONCOPHYLLINE A]	277
COc1cccc2c(-c3ccc4c(c3OC(C)=O)[C@@H](C)N(C(C)=O)[C@H](C)C4)c(C)cc(OC)c12 [N-ACETYL-8-O-ACETYLDIONCOPHYLLINE A]	331
COc1cccc2c(-c3ccc4c(c3O)[C@@H](C)N(C(C)=O)[C@H](C)C4)c(C)cc(OC)c12 [N-ACETYLDIONCOPHYLLINE A]	291
COc1cccc2c(-c3ccc4c(c3OC(C)C)[C@@H](C)N(C=O)[C@H](C)C4)c(C)cc(OC)c12 [N-FORMYL-8-O-ISOPROPYLDIONCOPHYLLINE A]	130
COc1cccc2c(-c3ccc4c(c3OC(=O)C(C)(C)C)[C@@H](C)N(C=O)[C@H](C)C4)c(C)cc(OC)c12 [N-FORMYL-8-O-PIVALOYLDIONCOPHYLLINE A]	333
COc1cccc2c(-c3ccc4c(c3O)[C@@H](C)N(C=O)[C@H](C)C4)c(C)cc(OC)c12 [N-FORMYLDIONCOPHYLLINE A]	454
